PMC4279419, “Angiostatic, tumor inflammatory and anti-tumor effects of CXCL4^47–70 and CXCL4L1^47–70 in an EGF-dependent breast cancer model” (Oncotarget, 2014)
Where no end group is shown, it is not given here.

How the values were obtained:
CCL5 = CCL5 binding (heterodimerization) assay in 96-well plates; set-up: species or system human; conditions: biotinylated peptides; 37 °C; 50 ng/ml CCL5 coated; OD450; n=3
Procedure: GAG, EGF and CCL5 binding were quantified in 96-well plates following a similar protocol. GAG binding was evaluated by immobilizing low molecular weight heparin (Iduron, Manchester, UK) on EpranEx plates (BD Biosciences), whereas EGF as well as CCL5 recombinant human protein (R&D Systems and PeproTech, respectively) was immobilized on high protein-binding ELISA plates (Corning life sciences, Tewksbury, MA). In brief, 25 μg/ml GAG [diluted in assay buffer 100 mM NaCl, 50 mM NaAc, pH 7.2, and 0.2% (v/v) Tween-20], 2 μg/ml EGF or 50 ng/ml CCL5 (both diluted in PBS), was coated overnight at room temperature on 96-well plates. Plates were washed three times with either assay buffer or 0.5% (v/v) Tween 20 in PBS and blocked at 37°C with buffer enriched with either 0.2% (w/v) gelatin (heparin binding assay) or 0.1% (w/v) casein (EGF or CCL5 binding assay). Subsequently, a dilution curve of biotinylated CXCL4L1^47–70 and CXCL4^47–70 peptide was pipetted on the plate and incubated at 37 °C to allow interaction with heparin, EGF or CCL5. After washing, retained biotinylated peptide was detected by peroxidase-conjugated streptavidin. Peroxidase activity was quantified by measuring the conversion of 3,3′,5,5′-tetramethylbenzidine (Sigma-Aldrich) at 450 nm.

[1] = test system: MDA-MB-231 breast tumors in SCID mice; assay: MDA-MB-231 tumor growth in SCID mice; type: in vivo; conditions: 2.5 μg intratumoral 3×/week from day 3, mean ± s.e.m., n=10; for tumor volume (external), day 11 / mean tumor volume (external), day 25: calipers; for tumor volume (external), day 11: vehicle 176 ± 56, p<0.001 (CXCL4^47–70), p=0.007 (CXCL4L1^47–70); for mean tumor volume (external), day 25: vehicle 1116 ± 149, p=0.121 (CXCL4L1^47–70); for mean tumor volume (external), day 25 / resected tumor mass, day 27 or 28: p=0.002 (CXCL4^47–70); for resected tumor volume, day 27 or 28: vehicle 845 ± 177, p=0.001 (CXCL4^47–70), p=0.256 (CXCL4L1^47–70); for resected tumor mass, day 27 or 28: vehicle 1464 ± 277, p=0.091 (CXCL4L1^47–70)
Procedure: SCID mice were bred in specific-pathogen-free conditions in the Experimental Animal Breeding Facility of the University of Leuven (KU Leuven) and fed sterilized food and water. All animal experiments were conducted in agreement with the Ethical Committee for Animal Care and Use of the KU Leuven and executed under license number LA1210243. 7- to 10-week-old SCID mice were used throughout the experiments. MDA-MB-231 cells in log growth phase (6 × 10^6 cells resuspended in 200 μl of PBS) were injected subcutaneously (s.c.) on day 0 in the right dorsal flank. Animals were treated by intratumoral injection with control, 2.5 μg synthetic human CXCL4^47–70 peptide or synthetic human CXCL4L1^47–70 peptide three times a week starting from day 3. The external tumor volume was measured with calipers thrice a week and calculated using the formula (4πab2)/3 in which a and b are the largest and smallest radius, respectively. On day 27 or 28, mice were sacrificed and tumors were resected. The exact tumor volume of the resected tumor, based on three measured radii (a, b and c), was calculated by the formula (4πabc)/3. A portion of the tumors was stored at −70°C for generation of mRNA extracts and another part was processed for flow cytometry.

[2] = test system: CD31-positive vessels of MDA-MB-231 tumors; assay: CD31 immunohistochemistry of resected tumors (vascularization); type: in vivo, mice; conditions: 2.5 μg intratumoral 3×/week; data not shown
Procedure: The impact of peptide treatment on the tumor vasculature was evaluated by quantification of immunohistochemically stained CD31-positive vessels. […] This inconsistency between our observations in vitro and in vivo evokes the question which alternative mechanisms may contribute to the anti-tumoral impact of peptide treatment as evidenced in the MDA-MB-231 tumor model.

[3] = test system: human acute monocytic leukemia cells (THP-1); assay: Transendothelial multiscreen chemotaxis assay; type: cell-based; conditions: HMVEC monolayer, n=3 to 4; for effect on CCL5-induced transendothelial migration: peptide 1000 to 5000 ng/ml + CCL5 20 ng/ml, 3 to 5 hours, 37°C, ATPlite
Procedure: Monocyte chemotaxis assays were performed on 5 μm hydrophilic polycarbonate multiscreen-MIC plates (Millipore) using the human acute monocytic leukemia cells (THP-1). To promote efficient synergy between CCL5 on one hand and CXCL4, CXCL4^47–70 or CXCL4L1^47–70 on the other hand, the upper compartment of these plates was coated with a HMVEC monolayer. HMVEC were seeded on a 0.1% gelatin layer 24 hours prior to the chemotaxis assay. The following day, dilutions of recombinant human CCL5 (PeproTech, Rocky Hill, CT), natural human CXCL4 (isolated from stimulated platelets as previously described), recombinant human CXCL4L1 (isolated from baculovirus-infected Sf9 cells as previously described), synthetic CXCL4^47–70, synthetic CXCL4L1^47–70 (both produced as described above), or combinations thereof were added to the lower compartment of the plate, in a volume of 150 μl. After removal of the HMVEC medium, 0.35 × 10^6 THP-1 cells were added to the upper wells, resuspended in phenol red-free RPMI + 0.1 g/100 ml BSA (endotoxin-free BSA; Sigma CatN° A8806) after centrifugation of the cells at 200g for 10 min. Plates were incubated at 37°C for 3 to 5 hours before quantifying the amount of cells that migrated towards the chemokine concentrations. For that purpose, we used the ATPlite kit (PerkinElmer, Waltham, MA) allowing quantitative luminescent detection of ATP, which is representative of THP-1 cell counts in the lower wells. This reaction was performed in a view white 96-well plate (PerkinElmer). A chemotactic index (CI) was calculated, defined as the ratio of luminescence after chemokine treatment and luminescence after control treatment.

p21 in HMVEC = assay: Intracellular p21 content in HMVEC (ELISA); type: cell-based, human; conditions: 15 h, mean ± s.e.m.
Procedure: Signaling assays were slightly adapted to the signaling molecules of interest in this study. HMVEC were stimulated with EGF (20 ng/ml) as a single stimulus or in combination with the peptides CXCL4^47–70 and CXCL4L1^47–70 (0.3 to 10 μg/ml) in order to evaluate their impact on the cell cycle-arresting p21. After 15 hours, the cells were washed three times with ice-cold PBS to stop the stimulation and lysis buffer [1 mM EDTA, 0.5% (v/v) Triton-X, 10 mM NaF, 150 mM NaCl, 1 mM DTT in PBS; pH 7.2–7.4] supplemented with a protease inhibitor cocktail (Sigma) was added. Cell residue was removed from the collected lysates by centrifugation (4°C, 10 min, 1666g). Lastly, the intracellular p21 content was determined by DuoSet® IC ELISA (cat n° DYC1047, R&D Systems) while, in parallel, total protein content was measured in a bicinchoninic acid (BCA) protein assay (Pierce, Rockford, IL).

CHO/CXCR3B cells = assay: CXCR3B binding (flow cytometry); conditions: NH2-terminally biotinylated peptides, 3 to 3000 ng/ml, data not shown
From the text: We further tried to reveal the mode of action of CXCL4^47–70 and CXCL4L1^47–70. First, we excluded that either peptide still binds/activates one of the CXCR3 isoforms, the receptors for intact CXCL4 and CXCL4L1.

[4] = peptide 3 μg/ml + EGF 20 ng/ml, n=9, p=0.039 (CXCL4^47–70), n=5, p=0.033 (CXCL4L1^47–70) versus EGF

What does the source list for “CXCL4L1^47–70: synthetic human carboxy-terminal peptide restricted to the last 24 amino acids of CXCL4L1, Fmoc chemistry”?
binding to CCL5-coated plate (CCL5): directly and equally well interacted with CCL5; tumor volume (external), day 11 [1]: 61 ± 23 mm^3; mean tumor volume (external), day 25 [1]: 719 ± 153 mm^3; resected tumor volume, day 27 or 28 [1]: 647 ± 161 mm^3; resected tumor mass, day 27 or 28 [1]: 953 ± 208 mg; vascularization of resected tumors (CD31-positive vessels) [2]: neither CXCL4^47–70, nor CXCL4L1^47–70 was reflected by a reduced vascularization; effect on CCL5-induced transendothelial migration [3]: enhanced transendothelial migration of monocytic cells; intracellular p21 relative to control (100%), with EGF (p21 in HMVEC; [4]): 115.06 ± 17.41%; specific binding to CHO/CXCR3B (CHO/CXCR3B cells): could not detect specific binding

Which “binding to CCL5-coated plate” value (CCL5) does the source give for “CXCL4^47–70: synthetic human carboxy-terminal peptide restricted to the last 24 amino acids of CXCL4, Fmoc chemistry (NGRKICLDLQAPLYKKIIKKLLES; not fully specified (N-terminus))” here?
Its value is “directly and equally well interacted with CCL5”.

What about the “tumor volume (external), day 11” value [1] of the same substance?
The value was 24 ± 6 mm^3.

And the “mean tumor volume (external), day 25” value [1]?
Its value is 438 ± 97 mm^3.

What about the “resected tumor volume, day 27 or 28” value [1] of the same substance?
The value was 308 ± 61 mm^3.

And the “resected tumor mass, day 27 or 28” value [1]?
The value was 523 ± 108 mg.

And the “vascularization of resected tumors (CD31-positive vessels)” value [2]?
Its value is “neither CXCL4^47–70, nor CXCL4L1^47–70 was reflected by a reduced vascularization”.

And the “effect on CCL5-induced transendothelial migration” value [3]?
Its value is “enhanced transendothelial migration of monocytic cells”.

And the “stimulation of monocytic cell chemotaxis compared to CXCL4L1^47–70” value ([3]; peptide 1000 to 5000 ng/ml with CCL5 20 ng/ml)?
The value was “more efficiently stimulated monocytic cell chemotaxis compared to CXCL4L1^47–70”.

What about the “intracellular p21 relative to control (100%), with EGF” value (p21 in HMVEC; peptide 1 μg/ml + EGF 20 ng/ml, n=6, p=0.039 versus EGF) of the same substance?
Its value is 106.90 ± 15.12%.

And the “intracellular p21 relative to control (100%), with EGF” value (p21 in HMVEC; [4])?
Its value is 100.02 ± 8.67%.

What about the “intracellular p21 relative to control (100%), with EGF” value (p21 in HMVEC; peptide 10 μg/ml + EGF 20 ng/ml, n=5, p=0.005 versus EGF) of the same substance?
Its value is 125.51 ± 15.05%.

And the “specific binding to CHO/CXCR3B” value (CHO/CXCR3B cells)?
Its value is “could not detect specific binding”.
